Experiment: WS12 leaching from lens into PBS packaging solution during autoclave (HPLC)
Format: physicochemical
Conditions: standard contact lens sterilization and storage conditions
Method: Silicone hydrogel contact lenses were prepared by curing the formulation for stenfilcon A in contact lens molds. The cured stenfilcon A was removed from the molds and extracted by immersing them for 215 minutes in ethanol (EtOH) containing WS12 (Tocris Bioscience) in the loading concentrations shown in Table I. The lenses were removed from the EtOH and washed in DI water for approximately 6 minutes, followed by two exchanges of DI water for approximately 30 minutes each. The lenses were transferred to 6 mL glass vials containing 3 mL phosphate buffered saline at pH 7.5 (0.78 wt. % NaCl, 0.05 wt. % sodium phosphate monobasic, and 0.36 wt. % sodium phosphate dibasic), referred to herein as PBS. The vials were sealed and autoclaved.
Each autoclaved lens was transferred to a vial containing 3 ml EtOH and stored overnight on a 150 rpm shaker at room temperature to extract WS12 from the lens. The EtOH extracts and the PBS in which the lenses were autoclaved were submitted for analysis by HPLC (detection wavelength=250 nm) against calibration standards to determine the average amount of WS12 loaded into each (n=5) and whether the WS12 leaches from the lens during autoclave.

SMILES: COc1ccc(NC(=O)C2CC(C)CCC2C(C)C)cc1 (stereo not shown) [WS12, N-(4-Methoxyphenyl)-5-methyl-2-(1-methylethyl)cyclohexanecarboxamide]
- stability of WS12 in hydrogel lens material during sterilization and storage: without degradation or leaching
